Holding throughout (type): in vivo
Series [1] deals with diamond-back moth (Plutella xylostella) (field-strain). Briefly: Hatching of diamond-back moth eggs laid on dipped germinated Japanese radish (Test Example 3). To be noted: 1.25 ppm (diluted 80,000 times with water); radish dipped 30 seconds before egg laying; hatching counted after 5 days; repeated twice; four grades. As for the experimental part:
Two pieces of germinated Japanese radish which had been sowed 5 or 6 days before were dipped for 30 seconds in the aqueous dilute solution. After air-drying for about 1 hour, these germinated radish were put in a cage wherein a large number of adult diamond-back moth (Plutella xylostella) (field-strain) of an age of 1-3 days after the emergence were released, and they were allowed to lay eggs. When the number of eggs per germinated radish reached 100 to 150, the radish were taken out of the cage and each two pieces thereof were put in a polyethylene cup of 5.5 cm in diameter. After 5 days, the number of hatching was counted to obtain percentage of hatching. The test was repeated twice.

In series [2] the test system is tobacco cutworm (Spodoptera litura). Briefly: Mortality of tobacco cutworm larvae on sprayed cabbage (Test Example 2). To be noted: for mortality at 0.5 ppm: Spodoptera litura, 120 h; for Mortality (%): 0.5 ppm (diluted 200,000 times with water), 30 ml sprayed onto cabbage, 5 fourth-instar larvae, after 5 days, repeated three times. The procedure: The emulsifiable concentrate of each of the following present compounds and controls prepared according to Formulation Example 1 was diluted 200,000 times with water (corresponding to 0.5 ppm). And 30 ml of each aqueous dilute solution thus obtained were sprayed onto cabbage cultivated in a plastic cup on a turn table, which cabbage had been planted one month before. After air-drying, 5 fourth-instar larvae of tobacco cutworm (Spodoptera litura) were released thereon, and after 5 days, the dead and alive were counted for mortality. This test was repeated three times.

Series [3] concerns common mosquito (Culex pipiens pallens). Briefly: Inhibition of adult emergence of common mosquito larvae in aqueous dilute emulsion (Test Example 1). Particulars: 3.5 ppm (emulsifiable concentrate diluted 28,600 times with water), 20 last-instar larvae in 100 ml, bred until emergence, repeated twice. As for the experimental part: The emulsifiable concentrate of each of the following present compounds prepared according to Formulation Example 1 was diluted 28,600 times with water (corresponding to 3.5 ppm). And 100 ml of each aqueous dilute emulsion thus obtained were charged in a 180-ml polyethylene cup. Then 20 last-instar larvae of common mosquito (Culex pipiens pallens) were released therein. The larvae were bred on baits until emergence to obtain percentage of inhibition of adult emergence. The test was repeated twice.

A word on the mortality: it is the share of the test organisms that died. The low end stands for a weak lethal effect, the high end for a strong lethal effect. By inhibition is commonly meant the change of the read-out against control, counted positive when it falls. Read a low inhibition as a weak effect.

On to `O=C(NC(=O)c1c(F)cccc1F)Nc1ccc(OC(F)(F)C(F)(F)Br)cc1F` [(1)], for which, in series [1], the Percentage of hatching result was “A (A: 0%)”. Moreover, the mortality at 0.5 ppm in series [2] was 100%. This compound yielded an inhibition at 3.5 ppm in series [3] of 100%.

As to `O=C(NC(=O)c1c(F)cccc1F)Nc1ccc(OC(F)(F)C(Cl)Cl)cc1F` [(2)], in series [1], the Percentage of hatching result is recorded as “A (A: 0%)”. This compound showed a mortality at 0.5 ppm in series [2] of 93%. The same compound yielded an inhibition at 3.5 ppm in series [3] of 100%.

In the case of `O=C(NC(=O)c1ccccc1Cl)Nc1ccc(OC(F)(F)C(Cl)Cl)cc1F` [(3)], the Percentage of hatching result in series [1] is listed as “A (A: 0%)”. Moreover, the mortality at 0.5 ppm in series [2] was determined as 100%. This compound gave an inhibition at 3.5 ppm in series [3] of 100%.

For the compound `O=C(NC(=O)c1c(F)cccc1F)Nc1ccc(OC(F)(F)C(Br)Br)cc1F` [(4)], the Percentage of hatching result in series [1] was “A (A: 0%)”. Besides, the mortality at 0.5 ppm in series [2] is 100%. Further, in series [3], at 3.5 ppm the inhibition was 100%.

Turning to `O=C(NC(=O)c1c(F)cccc1F)Nc1ccc(OC(F)(F)C(F)Cl)cc1F` (stereo not shown) [(5)], in series [1], the Percentage of hatching result is “A (A: 0%)”. This compound also displayed a mortality at 0.5 ppm in series [2] of 93%. Besides, in series [3], 3.5 ppm produced 100% inhibition.

Take `O=C(NC(=O)c1ccccc1Cl)Nc1ccc(OC(F)(F)C(F)Cl)cc1F` (stereo not shown) [(6)]: in series [1], the Percentage of hatching result is recorded as “A (A: 0%)”. Further, the mortality at 0.5 ppm in series [2] came to 100%. Moreover, the inhibition at 3.5 ppm in series [3] stood at 100%.

For the compound `O=C(NC(=O)c1c(F)cccc1F)Nc1ccc(OC(F)(F)C(F)C(F)(F)F)cc1F` (stereo not shown) [(7)], in series [1], the Percentage of hatching result is listed as “A (A: 0%)”. The compound further returned a mortality at 0.5 ppm in series [2] of 100%. Further, the inhibition at 3.5 ppm in series [3] stood at 100%.

`O=C(NC(=O)c1ccccc1Cl)Nc1ccc(OC(F)(F)C(F)C(F)(F)F)cc1F` (stereo not shown) [(8)]: in series [1], the Percentage of hatching result is listed as “A (A: 0%)”. This compound displayed a mortality at 0.5 ppm in series [2] of 100%. This compound displayed an inhibition at 3.5 ppm in series [3] of 100%.

As to `O=C(NC(=O)c1c(F)cccc1F)Nc1ccc(OC(F)(F)C(F)OC(F)(F)C(F)(F)C(F)(F)F)cc1F` (stereo not shown) [(9)], the Percentage of hatching entry in series [1] is recorded as “A (A: 0%)”. Besides, the mortality at 0.5 ppm in series [2] was found to be 100%. This compound returned an inhibition at 3.5 ppm in series [3] of 100%.

With `O=C(NC(=O)c1ccccc1Cl)Nc1ccc(OC(F)(F)C(F)OC(F)(F)C(F)(F)C(F)(F)F)cc1F` (stereo not shown) [(10)], the Percentage of hatching result in series [1] is on record as “A (A: 0%)”. In series [2], this compound displayed a mortality at 0.5 ppm of 100%. Testing at 3.5 ppm in series [3] gave an inhibition of 100%.

Take `O=C(NC(=O)c1c(F)cccc1F)Nc1ccc(OC(F)(F)C(F)OC(F)(F)F)cc1F` (stereo not shown) [(11)]: in series [1], the Percentage of hatching entry is reported as “A (A: 0%)”. In series [2], this compound had a mortality at 0.5 ppm of 100%. Moreover, testing at 3.5 ppm in series [3] gave an inhibition of 100%.

Regarding `O=C(NC(=O)c1ccccc1Cl)Nc1ccc(OC(F)(F)C(F)OC(F)(F)F)cc1F` (stereo not shown) [(12)], the Percentage of hatching entry in series [1] is “A (A: 0%)”. The compound also yielded a mortality at 0.5 ppm in series [2] of 100%. The compound further displayed an inhibition at 3.5 ppm in series [3] of 100%.

On to `O=C(NC(=O)c1c(F)cccc1F)Nc1ccc(Cl)cc1` [(A), reference compound], for which the Percentage of hatching result in series [1] is “D (D: 21% or more)”. Further, the “Mortality (%)” value in series [2] worked out at 13%.

On to `O=C(NC(=O)c1ccccc1Cl)Nc1ccc(OC(F)(F)F)cc1` [(B), reference compound], for which the Percentage of hatching entry in series [1] is recorded as “D (D: 21% or more)”. For the same compound, the “Mortality (%)” value in series [2] is 0%.
